{
  "source": "patent US20140370105A1",
  "about": "“TREATMENT OF INFLAMMATORY BOWEL DISEASE WITH 6-MERCAPTOPURINE” (Teva Pharmaceutical Industries, Ltd., priority 2008, published 2014)",
  "origin": "cited, not measured here",
  "system": "inflammatory bowel disease",
  "conditions": "conventional therapy",
  "data": [
    {"smiles": "Sc1ncnc2nc[nH]c12", "note": "[6-MP, 6-mercaptopurine]", "values": [
      {"measurement": "time required to be effective / show effect", "setting": "IBD / Crohn's disease patients", "result": "3-4 months"},
      {"measurement": "time required to show any benefit", "setting": "IBD patients", "result": "at least 12 weeks"}
    ]}
  ]
}
